Results taken from US5543496A, “Cyclic bradykinin antagonist peptides” (Scios Nova Inc., priority 1994, dated 1996).
Positions of bridges follow the written chain, without caps; N, C: chain ends. Non-standard residues stand in square brackets, D forms with d. Residues, ends and D or L forms follow the SMILES beside them. Oic = O=C(O)[C@@H]1C[C@@H]2CCCC[C@@H]2N1; dTic = O=C(O)[C@H]1Cc2ccccc2CN1

Tests used:
bradykinin receptor = biological target: T1, bradykinin receptor (Cavia porcellus, UniProt O70526); test: 3H-Bradykinin binding assay, guinea pig ileum membranes; conditions: displacement of 3H-bradykinin, terminal ileum homogenate of male Hartley guinea pigs, 90 min ambient temperature
T1 construct: from tissue; host or cells: guinea pig terminal ileum, washed membrane homogenate
T1 sequence (O70526 1-372): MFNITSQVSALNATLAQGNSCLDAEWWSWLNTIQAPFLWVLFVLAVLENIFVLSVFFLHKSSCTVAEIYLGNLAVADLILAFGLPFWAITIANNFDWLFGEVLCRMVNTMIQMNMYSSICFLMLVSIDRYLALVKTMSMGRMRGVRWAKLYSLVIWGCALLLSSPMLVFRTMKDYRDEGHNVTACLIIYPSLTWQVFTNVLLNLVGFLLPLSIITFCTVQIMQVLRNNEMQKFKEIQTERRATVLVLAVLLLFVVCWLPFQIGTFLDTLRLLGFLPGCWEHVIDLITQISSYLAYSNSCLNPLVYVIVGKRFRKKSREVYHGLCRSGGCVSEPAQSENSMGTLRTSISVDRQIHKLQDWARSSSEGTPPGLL
Experimental: Binding of ^3 H-Bradykinin was performed using the method of D. C. Manning, R. Vavrek, J. M. Stewart, and S. H. Snyder, J. Pharmacol. Exp. Ther., (1986), 237, 504. The tissues used in the binding assay were terminal ileum from male Hartley guinea pigs (150-350 g). After dissection, tissues were placed in 20 vol of ice-cold buffer A (25 mM TES containing 0.2 g/L of 1,10-phenanthroline adjusted of pH 6.8 with ammonium hydroxide) and homogenized using a Ploytron Tissumizer at setting 6 for 15 sec. The homogenate was centrifuged at 50,000×g for 10 min, the supernatant discarded, and the pellet resuspended in ice-cold buffer A by homogenization with the Polytron. Each tissue was homogenized and centrifuged three times. The final pellet was resuspended in buffer A containing bovine serum albumin (1 g/L) and Bacitracin (0.14 g/L) to a final volume of 170 mL/g of the original tissue weight. […] Filters were dissolved in Ready-Safe Fluor (Beckman) for at least 90 min before quantitation by liquid scintillation spectrometry. Kd values were determined using saturation binding and analysis by EBDA (G. A. MacPherson, J. Pharmacol. Methods, (1985), 213), followed by LIGAND (P. J. Munson, D. Rodbard, Anal. Biochem., (1980), 220). Ki values were determined using competitive analysis followed by EBDA and LIGAND. […]

[1] = cited from earlier work
[2] = anesthetized rat, intra-aortic vs intravenous administration; cited from earlier work
[3] = biological target: T2, bradykinin receptors on intestinal (ileal longitudinal) smooth muscle (Cavia porcellus, UniProt O70526); test: Bradykinin antagonist activity on guinea pig ileal longitudinal smooth muscle (Schild analysis); type: cell-based; conditions: antagonism of bradykinin-induced contraction, 5 min exposure, read-out: pA2 (converted)
T2 construct: The longitudinal muscle was separated from the underlying circular muscle; from tissue; host or cells: guinea pig ileal longitudinal smooth muscle strips in tissue bath
T2 sequence (O70526 1-372): T1 sequence (O70526 1-372)
Experimental: Guinea pig intestine was removed and placed in a Petri dish containing Tyrodes solution and cut into 3-4 cm segments. The longitudinal muscle was separated from the underlying circular muscle using a cotton applicator (Paton and Zar, J. Physiol., (1968), 194:13. Muscle strips were connected to isometric force-displacement transducers (Grass or Gould) coupled to a physiograph and placed in tissue baths containing Tyrode's solution at 37° C. Each preparation was suspended under a resting tension of 2 g.
After equilibration of the tissues, appropriate volumes of bradykinin solutions were cumulatively added to the 10 mL tissue baths to increase the concentration of bradykinin in the bath step-by-step without washing out after each single dose. Higher concentrations were added only after the preceding contraction had reached a steady value. […] Antagonism of badykinin responses in the presence of antagonist were determined by repeating the cumulative addition procedure for bradykinin after the tissue has been exposed to the antagonist for 5 minutes. Three or four different concentrations of antagonist are studied sequentially in the same preparations. Responses were expressed as a percentage of the maximum contraction elicited by bradykinin in the absence of antagonist. pA2 values were calculated by Schild analysis.

In the case of `NC(N)=NCCC[C@@H](N)C(=O)N[C@@H](CCCN=C(N)N)C(=O)N[C@H]1CSSC[C@@H](C(=O)N2Cc3ccccc3C[C@@H]2C(=O)N2[C@H](C(=O)N[C@@H](CCCN=C(N)N)C(=O)O)C[C@@H]3CCCC[C@@H]32)NC(=O)[C@H](Cc2ccccc2)NC(=O)CNC(=O)[C@@H]2CCCN2C1=O` (H-[dR]RCPGFC[dTic][Oic]R-OH; disulfide 3-7), the Ki (bradykinin receptor) is reported as 14.8 ± 0.34 nM.
For “Bradykinin (RPPGFSPFR; Bradykinin; UniProt P01042 381-389, looked up) [nonapeptide hormone, native agonist]”, the “half life in the systemic circulation” value [1] is listed as “less than 30 seconds” and the “destruction on a single passage through the pulmonary circulation” value [2] is listed as 98-99%.
`N=C(N)NCCC[C@@H](N)C(=O)N[C@@H](CCCNC(=N)N)C(=O)N[C@H]1CSSC[C@@H](C(=O)N[C@@H](CO)C(=O)N2Cc3ccccc3C[C@@H]2C(=O)N2[C@H](C(=O)N[C@@H](CCCNC(=N)N)C(=O)O)C[C@@H]3CCCC[C@@H]32)NC(=O)CNC(=O)[C@@H]2CCCN2C1=O` [drawing 26] (H-[dR]RCPGCS[dTic][Oic]R-OH; disulfide 3-6) showed a Kb [3] of 251 nM.
Work on `N=C(N)NCCC[C@@H](N)C(=O)N[C@@H](CCCNC(=N)N)C(=O)N[C@H]1CSSC[C@@H](C(=O)N[C@@H](CO)C(=O)N2Cc3ccccc3C[C@@H]2C(=O)N2[C@H](C(=O)N[C@@H](CCCNC(=N)N)C(=O)O)C[C@@H]3CCCC[C@@H]32)NC(=O)CNC(=O)[C@@H]2CCCN2C1=O` [drawing 23] (H-[dR]RCPGCS[dTic][Oic]R-OH; disulfide 3-6) yielded a Ki (bradykinin receptor) of 1.5 ± 0.1 nM.
